Test results published in PMC6270570, “New Flurbiprofen Derivatives: Synthesis, Membrane Affinity and Evaluation of in Vitro Effect on β-Amyloid Levels” (Molecules, 2013).
Like-named read-outs stand apart in the source and are kept apart here. Marks after values point to notes of the source that are not given here.

Tests used:
Aβ-42 = experiment: Western blotting of Aβ-42 expression in CTXTNA2 astrocytes (in vitro γ-secretase activity); assay type: cell-based, rat; settings: 24 h
Procedure: CTXTNA2 cell line, established from primary cultures of type 1 astrocytes from brain frontal cortex tissue of 1 day old rats, was obtained by ECACC (Salisbury, UK). Cells have been maintained in DMEM, 10% FBS at 37 °C, 5% CO2 until sub-confluence and incubated for 24 h with a DMSO solution of drug (concentrations ranging from 1 µM to 100 µM). For detection of cell viability, a Trypan blue dye exclusion test has been performed.
Cell lysates (20 µg) have been electrophoresed and transferred to nitrocellulose membrane. Nitrocellulose membranes, blocked in 5% non-fat milk, 10 mmol/L Tris pH 7.5, 100 mmol/L NaCl, 0.1% Tween-20, have been probed with mouse APP (Millipore, Billerica, MA, USA) and Aβ (Alpha Diagnostic Intl, San Antonio, TX, USA) monoclonal antibodies (Santa Cruz Biotechnology, Santa Cruz, CA, USA), then incubated in the presence of specific enzyme conjugated IgG horseradish peroxidase. Immunoreactive bands have been detected by ECL detection system (Amersham Intl., Buckinghamshire, UK) and analysed by densitometry. Densitometric values, expressed as Integrated Optical Intensity (I.O.I.), have been estimated in a CHEMIDOC XRS system by the QuantiOne 1-D analysis software (BioRad, Richmond, CA, USA). Values obtained have been normalized basing on densitometric values of internal β tubulin. Statistical analysis has been performed using the analysis of variance (ANOVA). Results have been expressed as mean ± SD. Values of p < 0.05 have been considered statistically significant.

[1] = PAMPA-BBB permeability (porcine polar brain lipid extract); assay type: in vitro ADME; settings: pH 7.4, 18 h of incubation; for Papp at 18 h, 500 µM: PAMPA, read-out: PAMPA-BBB Pe
Procedure: (§1) The following protocol was applied to measure the Pe through the artificial membrane to predict oral absorption and BBB permeation. In order to study the g.i. permeability, a 2% solution (w/v) of egg lecithin (phosphatidyl choline > 98%, PC) in dodecane was employed as an artificial membrane solution. The effective permeability of BBB was measured using phospholipid mixture from porcine polar brain lipid extract, composed by PC 12.6%, phosphatidylethanolamine (PE) 33.1%, phosphatidylserine (PS) 18.5%, phosphatidylinositol (PI) 4.1%, phospatidic acid (PA) 0.8% and 30.9% of other compounds (purchased from Avantis Polar Lipids, Alabaster, AL, USA). Each donor filtration plate well was then impregnated with 5 µL of this solution carefully, and immediately after 150 µL of phosphate buffer (pH 7.4/pH 6.5), containing co-drug 1 500 µM and iPrOH 20% as co-solvent was added. Then the drug-filled donor plate was placed into the acceptor plate that had been prefilled with the same buffer (300 µL) as acceptor solution. After plate lid was replaced, the resulting assembled donor-acceptor plates were incubated at r.t. for 2 h for PAMPA-GI and 18 h for PAMPA-BBB, following which drugs concentration in the acceptor and donor solutions were determined by HPLC [37].
(§2) Log Pe can be calculated from the equation below: [drawing 10] (2) where Pe is the effective permeability coefficient (cm x s^−1), VD is volume of donor compartment (0.15 cm^3) and VA is volume of acceptor compartment (0.30 cm^3), A is effective filter area (0.28 cm^2), t is incubation time for the assay (s), Cacceptor is the concentration of the compound in the acceptor compartment at the completion of the assay, and Cequilibrium is the concentration of compound at theoretical equilibrium.

[2] = IAM-HPLC affinity for membrane phospholipids (logKIAM/W); assay type: physicochemical; settings: IAM.PC.MG column, pH 7.0 phosphate buffer/acetonitrile, extrapolated to 100% aqueous eluent
Procedure: n-Octanol/water partition coefficients were theoretically calculated by the program clogP for windows version 2.0 (Biobyte Corp., Claremont, CA, USA). Affinity for membrane phospholipids, so called “phospholipophilicity”, was measured by HPLC on a phospholipid stationary phase. […] liquid chromatograph (Waters-Millipore, Milford, MA, USA), equipped with a 7125 Rheodyne injection valve and a 486 UV detector (Waters) set at 246 nm, was used. The column was an IAM.PC.MG (Immobilized Artificial Membrane-PhosphatidylCholine-MethylGlycolate) (4.6 mm × 150 mm) (Regis Chemical Company, Morton Grove, IL, USA). The mobile phase was 0.01 M phosphate buffer at pH 7.0 and acetonitrile at percentages ranging from 10 to 35 percent (v/v) (from 1.0 to 4.0 mL/min). The chromatography was carried out at room temperature. All samples were dissolved in methanol (ca. 10^-3 M) and 20 μL samples were injected in the chromatograph. Chromatographic retention data are expressed as the logarithm of the capacity factor, log k, defined as: log k = log [(tr - t0)/t0] (1) where tr and t0 are the retention times of the drug and a non-retained compound (citric acid), respectively. The log k values relative to 100% aqueous eluent (logKIAM/W) were calculated by performing a polycratic method of extrapolation. Each compound was eluted with at least three different mobile phases containing acetonitrile in different percentages (φ). […] All values of log k reported are the average of at least three measurements; the 95% confidence interval never exceeded 0.04 for each log k value. Possible occurrence of retention changes due to column aging was monitored by checking the retention times of five test compounds (amlodipine, p-nitroaniline, toluene, isradipine, and ketoprofen).

[3] = PAMPA-GI permeability (egg lecithin in dodecane); assay type: in vitro ADME; settings: read-out: PAMPA-GI Pe
Procedure: as §1, §2

APP = settings: 24 h
Procedure: For detection of cell viability, a Trypan blue dye exclusion test has been performed [33].
Cell lysates (20 µg) have been electrophoresed and transferred to nitrocellulose membrane. […] Immunoreactive bands have been detected by ECL detection system (Amersham Intl., Buckinghamshire, UK) and analysed by densitometry. Densitometric values, expressed as Integrated Optical Intensity (I.O.I.), have been estimated in a CHEMIDOC XRS system by the QuantiOne 1-D analysis software (BioRad, Richmond, CA, USA). Values obtained have been normalized basing on densitometric values of internal β tubulin. Statistical analysis has been performed using the analysis of variance (ANOVA). Results have been expressed as mean ± SD. Values of p < 0.05 have been considered statistically significant.

[4] = RP-HPLC retention factor extrapolated to 100% water (KC18/W); assay type: physicochemical; settings: for KC18/W (retention factor extrapolated to 100% water): RP-HPLC, acetonitrile/water mixtures; for chromatographic logP: by comparison with KC18/W and logP of nisoldipine and lacidipine, read-out: logP calculated from KC18/W
Procedure: Similarly, due to their high lipophilicity, experimental n-octanol/water lipophilicity values of enantiomers 8/9 were determined by RP-HPLC because their characterization through the “classical” shake-flask method was expected to be difficult and scarcely reproducible. The retention factor, determined in acetonitrile/water mixtures and extrapolated to 100% water (KC18/W) for enantiomers 8/9 was 3.94 (data not shown).

[5] = set-up: method as in doi:10.1016/0223-5234(96)80368-0; settings: n-octanol/water; cited from earlier work

Structure (SMILES) | Expression of Aβ-42 (Aβ-42; 1 µM) | Expression of Aβ-42 (Aβ-42; 10 µM) | Expression of Aβ-42 (Aβ-42; 100 µM) | Papp at 18 h, 500 µM [1] [×10⁻⁶ cm/s] | melting point [°C] | LogKIAM/W [2] | Papp at 2 h, 500 µM ([3]; pH 6.5, 2 h of incubation) [×10⁻⁶ cm/s] | Papp at 2 h, 500 µM ([3]; pH 7.4, 2 h of incubation) [×10⁻⁶ cm/s] | Expression of APP (APP; 1 µM) | Expression of APP (APP; 10 µM) | Expression of APP (APP; 100 µM) | Aβ-42 production, effect in words (Aβ-42; 1 µM to 100 µM, without affecting the APP level) | PAMPA-BBB Pe [1] | KC18/W (retention factor extrapolated to 100% water) [4] | chromatographic logP [4] | logP (experimentally determined values) [5]
C[C@H](NC(=O)[C@H](C)c1ccc(-c2ccccc2)c(F)c1)C(=O)N[C@H](C(=O)OC(C)(C)C)c1ccccc1 [Compound 1, tert-Butyl (2S)-({N-[(2R)-2-(2-fluoro-1,1'-biphenyl-4-yl)propanoyl]-L-alanyl}amino)(phenyl)acetate] | (29.2 ± 1.2) × 10^−2 | (43.5 ± 1.6) × 10^−2 | (45.8. ± 1.3) × 10^−2 | 2.4 | 105 to 107 | 3.67 | 3.7 | 4.8 | (93.1 ± 3.8) × 10^−2 | (89.4 ± 3.2) × 10^−2 | (120 ± 3.2) × 10^−2 |  |  |  |  | 
C[C@H](NC(=O)[C@@H](C)c1ccc(-c2ccccc2)c(F)c1)C(=O)N[C@H](C(=O)OC(C)(C)C)c1ccccc1 [Compound 2, tert-Butyl(2S)-({N-[(2S)-2-(2-fluoro-1,1'-biphenyl-4-yl)propanoyl]-L-alanyl}amino)(phenyl)acetate] | (20.0 ± 1.1) × 10^−2 | (12.1 ± 0.6) × 10^−2 | (8.4 ± 0.2) × 10^−2 | 2.1 | 106 to 108 | 3.80 | 3.6 | 4.1 | (93.1 ± 2.6) × 10^−2 | (93.3 ± 3.5) × 10^−2 | (63.6 ± 2.8) × 10^−2 | highly effective |  |  |  | 
C[C@H](NC(=O)Cc1ccc(-c2ccccc2)c(F)c1)C(=O)N[C@H](C(=O)OC(C)(C)C)c1ccccc1 [Compound 3, tert-butyl (2S)-({N-[(2-fluoro-1,1'-biphenyl-4-yl)acetyl]-L-alanyl}amino)(phenyl)acetate] | (8.8. ± 0.4) × 10^−2 | (10.5 ± 0.4) × 10^−2 | (45.8. ± 1.3) × 10^−2 |  | 104 to 106 | 3.64 | 2.1 | 2 | (64.1 ± 2.3) × 10^−2 | (72.2 ± 2.1) × 10^−2 | (105 ± 3.2) × 10^−2 |  | 2.0 10^−6 cm/s |  |  | 
CN1C(=O)[C@H](NC(=O)Cc2ccc(-c3ccccc3)c(F)c2)c2ccccc2-c2ccccc21 [Compound 8, 2-(2-Fluoro-1,1'-biphenyl-4-yl)-N-[(7R)-5-methyl-6-oxo-6,7-dihydro-5H-dibenzo[b,d]azepin-7-yl]-acetamide] | (31.1 ± 0.9) × 10^−2 | (25.0 ± 1.0) × 10^−2 | (35.2 ± 1.1) × 10^−2 | 2.3 | 96 to 100 | 3.58 | 2.5 | 2.6 | (82.3 ± 3.2) × 10^−2 | (68.1 ± 3.2) × 10^−2 | (94.4 ± 4.2) × 10^−2 |  |  | 3.94 | 5.49 | 
CN1C(=O)[C@@H](NC(=O)Cc2ccc(-c3ccccc3)c(F)c2)c2ccccc2-c2ccccc21 [Compound 9, 2-(2-Fluoro-1,1'-biphenyl-4-yl)-N-[(7S)-5-methyl-6-oxo-6,7-dihydro-5H-dibenzo[b,d]azepin-7-yl]-acetamide] | (43.2 ± 2.1) × 10^−2 | (38.4 ± 1.0) × 10^−2 | (14.0 ± 0.5) × 10^−2 | 2.3 | 96 to 100 | 3.58 | 2.5 | 2.6 | (68.7 ± 2.2) × 10^−2 | (69.2 ± 1.4) × 10^−2 | (94.3 ± 3.2) × 10^−2 |  |  | 3.94 | 5.49 | 
CCOC(=O)C1=C(C)NC(C)=C(C(=O)OCC)C1c1ccccc1/C=C/C(=O)OC(C)(C)C [Lacidipine, reference compound] |  |  |  |  |  | 3.52 |  |  |  |  |  |  |  | 4.01 |  | 5.56 ^a
COC(=O)C1=C(C)NC(C)=C(C(=O)OCC(C)C)C1c1ccccc1[N+](=O)[O-] (stereo not drawn) [Nisoldipine, reference compound] |  |  |  |  |  | 2.63 |  |  |  |  |  |  |  | 2.99 |  | 4.53 ^a
